The OPERA property sets (Mansouri et al. 2018)
Peptide text beside a SMILES is read from it.

Work on Oc1cccc2c(Cl)ccnc12 yielded a logP of 2.67. For CN(C)CCN1C(=O)c2ccccc2N(C)c2ccccc21, the logP was 2.5. Molecule O=C(O)Cc1sc(-c2ccccc2)nc1-c1ccc(Cl)cc1 has a logP of 5.19. Work on CCCCC1CC(C(=O)NC(C(C)O)C2OC(SC)C(O)C(O)C2O)N(C)C1 (stereo unspecified) yielded a logP of 0.56. CCOC(=O)C(=Cc1ccc(Cl)cc1)C(C)=O gave a logP of 3.04. Molecule c1ccc(-c2ccncc2)nc1 has a logP of 1.58. Work on Cc1c(Cl)cccc1Nc1ccccc1CC(=O)O yielded a logP of 4.64. Molecule CCCOCCC has a logP of 2.03. Molecule CCCCCCOc1cccc(NC(=O)OCCN2CCCCC2)c1 has a logP of 5.51. In the case of Nc1ccccc1C(F)(F)F, the logP is reported as 2.41. With NCc1ccc([N+](=O)[O-])cc1 the logP was 1.06. CCc1cnc(NS(=O)(=O)c2ccc(N)cc2)nc1 gave a logP of 0.9. Work on Cc1cccc2nccnc12 yielded a logP of 2.04. C1=Cc2ccccc2C1 gave a logP of 2.92. With ICI the logP was 2.3. Molecule ON=Cc1ccncc1 has a logP of 0.77. In the case of NCCCc1cccnc1, the logP is reported as 0.44. Molecule CCN(CC)c1nc(Cl)nc(NC(C)C)n1 has a logP of 3.94. O=C(O)c1cccs1 showed a logP of 1.57. In the case of CC(C)=O, the logP is reported as -0.24. With CS(=O)(=O)CCC(N)C(=O)O (stereo unspecified) the logP was -3.1. Molecule CC(=O)c1ccc(Br)cc1 has a logP of 2.43. Work on O=c1n[n+]([O-])ccn1C1OC(CO)C(O)C1O (stereo unspecified) yielded a logP of -2.43. With O=[N+]([O-])c1ccc2c(c1)c([N+](=O)[O-])cc[n+]2[O-] the logP was 0.9. Molecule COC(=O)c1ccc[nH]1 has a logP of 1.17. Molecule O=C(O)COc1ccccc1 has a logP of 1.34. For Cc1cncc(C)c1, the logP was 1.78. In the case of CC(CN(C)C)CN1c2ccccc2S(=O)(=O)c2ccccc21 (stereo unspecified), the logP is reported as 2.51. Molecule COc1ccc(C(C[N+](=O)[O-])c2ccc(OC)cc2)cc1 has a logP of 3.57. With O=C1NCN(c2ccccc2)C12CCN(CCCC(c1ccc(F)cc1)c1ccc(F)cc1)CC2 the logP was 5.86. Work on CN1CCCCC1 yielded a logP of 1.3. Nc1nc(N)nc(N)n1 showed a logP of -1.37. In the case of Oc1c(Cl)c(Cl)cc(Cl)c1Cl, the logP is reported as 3.88. Work on CC(C)COC(=O)n1cnc(CC(NC(=O)C2CCC(=O)N2)C(=O)N2CCCC2C(N)=O)c1 (stereo unspecified) yielded a logP of -0.44. CNCC(F)(F)F gave a logP of 0.55. Work on Cc1ccc(C)[nH]1 yielded a logP of 1.47. N#CCCN(CCC#N)N=O showed a logP of 0.08. Molecule Cc1ccc(NS(=O)(=O)C(F)(F)F)cc1 has a logP of 3.6. Work on CCCNC(=O)c1cccnc1 yielded a logP of 0.66. COc1cc(C(=O)O)cc(OC)c1O showed a logP of 1.04. With NC(=O)c1ccc(C(F)(F)F)cc1 the logP was 1.71. With c1ccc(SSc2ccccc2)cc1 the logP was 4.41. Molecule Cc1ccc(NC=O)cc1 has a logP of 1.61. Work on CC(C)C[C@H](N)C(=O)O yielded a logP of -1.52. Molecule O=C(Nc1ccccc1)NC1CCCCC1 has a logP of 2.77. For Oc1cc(Cl)c(Cl)cc1Cl, the logP was 3.72. With O=[As](O)(O)c1ccccc1 the logP was 0.06. With CC(=O)Oc1c[nH]c2ccccc12 the logP was 2.01. For CC(=O)NC1CC(=O)N(c2ccccc2)C1=O (stereo unspecified), the logP was -0.33. COC(OC)OC showed a logP of 0.25. Work on CC(=O)c1cccnc1 yielded a logP of 0.43. For CC(=O)Nc1cccc(C(C)=O)c1, the logP was 1.06. O=C(O)Cc1ccccc1 showed a logP of 1.41. CC(=O)N[C@@H](C)C(=O)NCC(=O)N[C@@H](Cc1ccccc1)C(N)=O (Ac-Ala-Gly-Phe-NH2) gave a logP of -0.71. Molecule Nc1cccc2cccnc12 has a logP of 1.79. CCN gave a logP of -0.13. Work on NS(=O)(=O)c1cccc2cccnc12 yielded a logP of 0.42. Molecule C[C@]12CCC(=O)C=C1CC[C@@H]1[C@@H]2CC[C@]2(C)C(=O)CC[C@@H]12 has a logP of 2.75. With Nc1ccccn1 the logP was 0.48. CCOC(=O)c1cccs1 gave a logP of 2.33. In the case of Nc1nc2ccccc2[nH]1, the logP is reported as 0.91. OCCNCc1ccccc1 showed a logP of 0.79. For O=Cc1cccs1, the logP was 1.02. ON=Cc1ccc(Cl)cc1 showed a logP of 2.67. CNC(=O)CSP(=S)(OC)OC showed a logP of 0.78. In the case of O=NN1CCCC1, the logP is reported as -0.19. Work on Cc1cccc(C(=O)NN)c1 yielded a logP of 0.74. With Cc1cccc(CO)c1 the logP was 1.6. Molecule CC(C)(C)C1Nc2cc(Cl)c(S(N)(=O)=O)cc2S(=O)(=O)N1 (stereo unspecified) has a logP of 0.36. In the case of CC(=O)NC(Cc1ccc(O)cc1)C(N)=O (stereo unspecified), the logP is reported as -0.87. With O=C(Cc1ccccc1)NC(CO)C(O)c1ccc([N+](=O)[O-])cc1 (stereo unspecified) the logP was 1.52. COc1ccccc1C(=O)O showed a logP of 1.59. Molecule O=C(O)c1c(O)cccc1O has a logP of 2.2. For O=[N+]([O-])c1cccc(I)c1, the logP was 2.94. CNC(=O)Oc1cc(Cl)ccc1Cl gave a logP of 2.44. Cc1cccc(Cl)c1Nc1ccccc1CC(=O)O gave a logP of 4.37. For CCCCCOC(=O)c1ccc(S(N)(=O)=O)cc1, the logP was 2.71. Work on COc1cccc(C(=O)NC2CC3CCC(C2)N3Cc2ccccc2)c1OC (stereo unspecified) yielded a logP of 3.24. With Cc1ccc(C(C)C)cc1 the logP was 4.1. In the case of NC(=O)OCc1ccccc1, the logP is reported as 1.2. For COC(=O)c1cccc(C(=O)O)c1, the logP was 1.83. For NCCCCc1cccnc1, the logP was 0.88. CCCCN gave a logP of 0.97. For Cc1nc2ccccc2[nH]1, the logP was 1.43. Work on CCN(CC)c1nc(C)cc(OP(=S)(OC)OC)n1 yielded a logP of 4.2. With c1ccc(N2CCCC2)cc1 the logP was 3.56. With C[C@H](N[C@H](CCc1ccccc1)C(=O)O)C(=O)N1CCC[C@H]1C(=O)O the logP was -0.74. Nc1nc2c(ncn2[C@H]2C[C@H](O)[C@@H](CO)O2)c(=S)[nH]1 gave a logP of -0.56. CCCN1CCCC[C@H]1C(=O)Nc1c(C)cccc1C gave a logP of 2.9. Clc1ccc(Cl)nc1 gave a logP of 2.4. In the case of C=CNP(=O)(NC=C)NC(=O)c1ccc(OC)cc1, the logP is reported as 1.08. With O=C(C=Cc1ccccc1)Nc1ccccc1 the logP was 3.61. CC(=O)Oc1ccccc1I showed a logP of 2.55. For CCC(C)c1ccccc1OCC(=O)O (stereo unspecified), the logP was 3.32. In the case of C=CCN(C(C)=O)C(C)C, the logP is reported as 1.14. CCCCC(C)(C)c1ccc(C2CCCC(O)C2)c(O)c1 (stereo unspecified) gave a logP of 5.43. O=c1[nH]c(=O)n(C2CCCO2)cc1F (stereo unspecified) showed a logP of -0.27. Molecule CCCc1cccc(OCC(=O)O)c1 has a logP of 2.71. With CSc1ccc(C(=O)O)cc1 the logP was 2.74. ClC(Cl)=C(Cl)C(Cl)=C(Cl)Cl showed a logP of 4.78. Work on O=[N+]([O-])c1ccc2cccnc2c1 yielded a logP of 1.82. Work on Oc1cccc(I)c1 yielded a logP of 2.93. With C=CC=CCC the logP was 3.16. In the case of O=C(O)C=Cc1ccc([N+](=O)[O-])cc1, the logP is reported as 2.12. For O=C(O)C1CC1, the logP was 0.63. Molecule NC(=O)Cc1ccccn1 has a logP of -0.65. For Nc1nncs1, the logP was -0.57. In the case of C=C(F)F, the logP is reported as 1.24. Work on NC(=O)Nc1ccc(Cl)cc1 yielded a logP of 1.8. For CNC(=O)Oc1ccccc1OC, the logP was 0.81. With COc1cccc(OC)c1C(=O)O the logP was 0.66. In the case of CC(N)(Cc1ccc(O)cc1)C(=O)O (stereo unspecified), the logP is reported as -1.89. For CC[C@H](C)C(=O)O[C@H]1C[C@H](O)C=C2C=C[C@H](C)[C@H](CC[C@@H]3C[C@@H](O)CC(=O)O3)[C@H]21, the logP was 2.42. CCN(CC)CCSC(=NO)c1nc(-c2cccc3ccccc23)no1 gave a logP of 3.87. Molecule CCCc1cc(OC)c(CC(C)N)cc1OC (stereo unspecified) has a logP of 3.37. Molecule COC(=O)c1cccc(N=NN(C)C)c1 has a logP of 3.12. Work on CCCCCCN(C)N=Nc1ccc(C(N)=O)cc1 yielded a logP of 3.69. With CCCCCCCOC(=O)C(C(=O)OCCCCCCC)=C1SCCS1 the logP was 7.6. With CCCCNC(=O)Cn1cnc([N+](=O)[O-])n1 the logP was 0.89. For CCC(=O)OC1(C(C)=O)C(C)CC2C3CCC4=CC(=O)C=CC4(C)C3(F)C(=O)CC21C (stereo unspecified), the logP was 3.09. For Nc1nc(N)nc(-c2cccc([N+](=O)[O-])c2)n1, the logP was 1.57.
